# According to ChEMBL document CHEMBL1133221 (2000):
# Calls of active or inactive are those of the source. The calls are words filed in the database; no cut-off is given here.
# What was measured:
# [1] = Inhibitory activity against chitin synthase from Saccharomyces cerevisiae
# [2] = system: Cryptococcus neoformans; assay: Inhibitory activity against chitin synthase from Cryptococcus neoformans at 128 ug/mL; No inhibition
# [3] = Inhibitory activity against chitin synthase from Saccharomyces cerevisiae at a concentration up to 500 uM; No inhibition
# [4] = system: Microsporum canis; assay: Inhibitory activity against chitin synthase from Microsporum canis at 128 ug/mL; No inhibition
# [5] = system: Aspergillus fumigatus; assay: Inhibitory activity against chitin synthase from Aspergillus fumigatus at 128 ug/mL; No inhibition
# [6] = system: trychophyton mentagrophytes; assay: Inhibitory activity against chitin synthase from Trichophyton mentagrophytes at 128 ug/mL; No inhibition
# [7] = target: Chitin synthase 1 (Candida albicans) (UniProt P23316); assay: Inhibitory activity against chitin synthase from Candida albicans at 128 ug/mL; No inhibition
# Sequence of Chitin synthase 1 (Candida albicans) (P23316 whole entry, looked up): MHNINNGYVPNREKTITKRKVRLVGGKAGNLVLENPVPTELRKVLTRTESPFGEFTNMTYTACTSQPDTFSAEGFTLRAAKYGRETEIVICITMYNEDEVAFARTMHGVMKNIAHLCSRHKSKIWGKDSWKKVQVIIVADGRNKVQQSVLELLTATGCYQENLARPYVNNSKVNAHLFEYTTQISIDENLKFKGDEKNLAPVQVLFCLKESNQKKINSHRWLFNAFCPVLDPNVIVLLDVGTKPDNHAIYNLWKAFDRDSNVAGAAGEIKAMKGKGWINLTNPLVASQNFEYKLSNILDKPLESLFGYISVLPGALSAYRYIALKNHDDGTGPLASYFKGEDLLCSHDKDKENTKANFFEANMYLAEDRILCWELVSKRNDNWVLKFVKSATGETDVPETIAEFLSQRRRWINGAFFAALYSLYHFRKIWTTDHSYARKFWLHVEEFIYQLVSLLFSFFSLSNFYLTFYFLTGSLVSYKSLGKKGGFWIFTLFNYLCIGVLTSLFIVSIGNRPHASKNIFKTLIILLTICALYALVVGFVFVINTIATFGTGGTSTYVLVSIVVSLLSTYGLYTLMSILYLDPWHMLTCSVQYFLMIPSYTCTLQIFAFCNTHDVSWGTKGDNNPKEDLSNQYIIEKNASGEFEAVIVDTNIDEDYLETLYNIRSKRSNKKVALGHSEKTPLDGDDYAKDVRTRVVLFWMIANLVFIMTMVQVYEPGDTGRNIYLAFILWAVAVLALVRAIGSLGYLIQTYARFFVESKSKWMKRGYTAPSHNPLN
Ki [1],Activity [2],Ki [3],Activity [4],Activity [5],Activity [6],Activity [7],SMILES
600 nM,,,,,,,C[C@@H]([C@H](N)C(=O)N[C@H](C(=O)O)[C@H]1O[C@@H](n2ccc(=O)[nH]c2=O)[C@H](O)[C@@H]1O)[C@H](O)c1ccc(O)cn1 [NIKKOMYCIN]
,inactive,Not Active,inactive,inactive,inactive,inactive,CCOP(=O)(OCC)C(F)(F)C1C(O)C(O)C(CO)N1CCNC1C(CO)OC(OC)C(NC(C)=O)C1O (configuration not stated)
